In patent US20230124361A1, “SMALL MOLECULE STING ANTAGONISTS” (CURADEV PHARMA PVT. LTD., priority 2020, published 2023):

These molecules were tested against T1, STING (Homo sapiens, UniProt Q86WV6, G230A/H232R/R293Q/R71H) (assay: Reporter gene expression assay in THP1-Dual cells (IRF pathway Lucia luciferase, 2',3'-cGAMP stimulation)). Conditions: 10 min preincubation, 5 μM 2',3'-cGAMP, 20 hr, IRF reporter QUANTI-Luc, read-out: THP-1 (HAQ) Activity.
T1 construct: host or cells: THP1-Dual cells (human THP-1 monocyte line with Lucia/SEAP reporters)
Type: cell-based
Summary of the method: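 THP1-Dual cells preincubated 10 min with compound, then stimulated with 5 μM 2′,3′-cGAMP for 20 hr. Secreted Lucia luciferase (IRF reporter) measured in supernatant by luminescence; IC50 reported as ranges (A ≤1 μM, B >1–≤10 μM, C >10 μM).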

T1 sequence (Q86WV6 whole entry R71H/G230A/H232R/R293Q): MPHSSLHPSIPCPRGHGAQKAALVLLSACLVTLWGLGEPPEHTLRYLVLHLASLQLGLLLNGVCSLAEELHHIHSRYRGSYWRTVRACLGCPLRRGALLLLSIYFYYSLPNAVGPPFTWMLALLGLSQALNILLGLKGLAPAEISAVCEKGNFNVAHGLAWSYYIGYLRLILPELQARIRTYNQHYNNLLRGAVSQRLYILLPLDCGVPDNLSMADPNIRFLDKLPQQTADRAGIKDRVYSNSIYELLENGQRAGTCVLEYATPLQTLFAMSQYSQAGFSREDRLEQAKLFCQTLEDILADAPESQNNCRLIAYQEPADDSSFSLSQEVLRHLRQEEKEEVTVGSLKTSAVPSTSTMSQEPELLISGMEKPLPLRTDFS

| Structure (SMILES) | IC50 |
| --- | --- |
| COc1ccc(OC)c(CN2C(=O)COc3cc(NC(=O)Nc4ccc5cc[nH]c5c4)ccc32)c1 [Example 115, 1-(4-(2,5-dimethoxybenzyl)-3-oxo-3,4-dihydro-2H-benzo[b][1,4]oxazin-7-yl)-3-(1H-indol-6-yl)urea] | 1000 to 10000 nM |
| N#Cc1cccc(CN2C(=O)COc3cc(NC(=O)Nc4ccc5cc[nH]c5c4)ccc32)c1 [Example 116, l-(4-(3-cyanobenzyl)-3-oxo-3,4-dihydro-2H-benzo[b][1, 4]oxazin-7-yl)-3-(1H-indol-6-yl)urea] | 1000 to 10000 nM |
| O=C(Nc1ccc2c(c1)OCC(=O)N2Cc1nc2ccccc2s1)Nc1ccc2cc[nH]c2c1 [Example 117, 1-(4-(benzo[d]thiazol-2-ylmethyl)-3-oxo-3,4-dihydro-2H-benzo[b][1,4]oxazin-7-yl)-3-(1H-indol-6-yl)urea] | ≤ 1000 nM |
| O=C(Nc1ccc2c(c1)OCC(=O)N2Cc1ccc(C(=O)O)cn1)Nc1ccc2cc[nH]c2c1 [Example 118, 6-((7-(3-(1H-indol-6-yl)ureido)-3-oxo-2,3-dihydro-4H-benzo[b][1,4]oxazin-4-yl)methyl)nicotinic acid] | > 10000 nM |
| O=C(Nc1ccc2c(c1)OCC(=O)N2Cc1ccc2nsnc2c1)Nc1ccc2cc[nH]c2c1 [Example 119, 1-(4-(benzo[c][1,2,5]thiadiazol-5-ylmethyl)-3-oxo-3,4-dihydro-2H-benzo[b][1,4]oxazin-7-yl)-3-(1H-indol-6-yl)urea] | 1000 to 10000 nM |
| O=C(Nc1ccc2c(c1)OCC(=O)N2Cc1nc(-c2ccccc2)no1)Nc1ccc2cc[nH]c2c1 [Example 121, 1-(1H-indol-6-yl)-3-(3-oxo-4-((3-phenyl-1,2,4-oxadiazol-5-yl)methyl)-3,4-dihydro-2H-benzo[b][1,4]oxazin-7-yl)urea] | 1000 to 10000 nM |
| CS(=O)(=O)c1cc(Cl)ccc1CN1C(=O)COc2cc(NC(=O)Nc3ccc4cc[nH]c4c3)ccc21 [Example 122, 1-(4-(4-chloro-2-(methylsulfonyl)benzyl)-3-oxo-3,4-dihydro-2H-benzo[b][1,4]oxazin-7-yl)-3-(1H-indol-6-yl)urea] | 1000 to 10000 nM |
| N#Cc1ccc(CN2C(=O)COc3cc(NC(=O)Nc4ccc5cc[nH]c5c4)ccc32)cc1 [Example 123, 1-(4-(4-cyanobenzyl)-3-oxo-3,4-dihydro-2H-benzo[b][1,4]oxazin-7-yl)-3-(1H-indol-6-yl)urea] | 1000 to 10000 nM |
| O=C(Nc1ccc2c(c1)OCC(=O)N2Cc1ccc(-n2cncn2)cc1)Nc1ccc2cc[nH]c2c1 [Example 128, 1-(4-(4-(1H-1,2,4-triazol-1-yl)benzyl)-3-oxo-3,4-dihydro-2H-benzo[b][1, 4]oxazin-7-yl)-3-(1H-indol-6-yl)urea] | > 10000 nM |

Results, then the molecule that gave them:

| IC50 | Structure (SMILES) |
| --- | --- |
| 1000 to 10000 nM | N#Cc1ccc(CN2C(=O)COc3cc(NC(=O)Nc4ccc5cc[nH]c5c4)ccc32)c(F)c1 [Example 120, 1-(4-(4-cyano-2-fluorobenzyl)-3-oxo-3,4-dihydro-2H-benzo[b][1,4]oxazin-7-yl)-3-(1H-indol-6-yl)urea] |
| ≤ 1000 nM | COc1ccc(F)c(CN2C(=O)CSc3cc(NC(=O)Nc4ccc5cc[nH]c5c4)ccc32)c1Cl [Example 124, l-(4-(2-chloro-6-fluoro-3-methoxybenzyl)-3-oxo-3,4-dihydro-2H-benzo[b][1, 4]thiazin-7-yl)-3-(1H-indol-6-yl)urea] |
| ≤ 1000 nM | O=C(Nc1ccc2c(c1)SCC(=O)N2Cc1c(F)ccc(O)c1Cl)Nc1ccc2cc[nH]c2c1 [Example 125, l-(4-(2-chloro-6-fluoro-3-hydroxybenzyl)-3-oxo-3,4-dihydro-2H-benzo[b][1, 4]thiazin-7-yl)-3-(1H-indol-6-yl)urea] |
| ≤ 1000 nM | COc1cc(F)c(CN2C(=O)CSc3cc(NC(=O)Nc4ccc5cc[nH]c5c4)ccc32)c(F)c1 [Example 126, 1-(4-(2,6-difluoro-4-methoxybenzyl)-3-oxo-3,4-dihydro-2H-benzo[b][1, 4]thiazin-7-yl)-3-(1H-indol-6-yl)urea] |
| 1000 to 10000 nM | O=C(Nc1ccc2c(c1)SCC(=O)N2Cc1c(F)cc(O)cc1F)Nc1ccc2cc[nH]c2c1 [Example 127, 1-(4-(2,6-difluoro-4-hydroxybenzyl)-3-oxo-3,4-dihydro-2H-benzo[b][1, 4]thiazin-7-yl)-3-(1H-indol-6-yl)urea] |
